Series [1] deals with A549 (lung cancer) cell line. Kind of series: SRB in-vitro cytotoxicity assay, A549. To be noted: Homo sapiens. On the procedure: (§1) All the ring annulated analogues of cannabinoid were evaluated for their cytotoxicity against number of human cancer cell lines. To evaluate the in-vitro cytotoxicity, a sulphorhodamine B (SRB) assay was carried out. SRB is a negatively charged pink aminoxanthine dye that binds to the basic amino acid of cells in mildly acidic conditions and is removed in basic conditions. […] When cells reached 60-70% confluency, trypsinized and seeded in 96 well plates according to their inoculation density and incubated for 24 hours to attain their proper morphology. Next-day cells were again incubated for 48 hours with test compounds or paclitaxel (positive control). Next, cells were fixed with 50% of ice-cold TCA for 1 hours, washed with distilled water, and kept for air drying. Air-dried plates were then stained with 0.4% SRB dye for 30 minutes and subsequently with water and 1% v/v glacial acetic acid were then kept for air drying. […] The viability of cells is measured based on bound dye after fixation, which is measured by absorbance at 540 nm.

Series [2] relates to PC-3 (prostate cancer) cell line. Kind of series: SRB in-vitro cytotoxicity assay, PC-3. To be noted: Homo sapiens. On the procedure: as §1
Series [3] concerns HCT-116 (colorectal cancer) cell line. Nature of the series: SRB in-vitro cytotoxicity assay, HCT-116. The settings on record: Homo sapiens. On the procedure:
as §1

The test system of series [4] is U251 (glioblastoma) cell line. Kind of series: SRB in-vitro cytotoxicity assay, U251. To be noted: Homo sapiens. On the procedure: as §1
Series [5] relates to MCF-7 (breast cancer) cell line. Kind of series: SRB in-vitro cytotoxicity assay, MCF-7. To be noted: Homo sapiens. On the procedure: as §1
A short description of another series: in vitro. To be noted: human. On the procedure:
as §1

Series [6] deals with Mia-PaCa (pancreatic cancer) cell line. Kind of series: SRB in-vitro cytotoxicity assay, Mia-PaCa. The settings on record: Homo sapiens. On the procedure:
as §1

Where [7] appears, read: A549, 48 h, read-out: Cytotoxicity (in vitro cell inhibition) A549.
Setting [8] is: A549, read-out: inhibition against A549 cell lines.
The mark [9] stands for this setting: 48 h, read-out: Cytotoxicity (in vitro cell inhibition) PC3.
Where [10] appears, read: PC-3, read-out: inhibition against PC3 cell lines.
The mark [11] stands for this setting: HCT-116, 48 h, read-out: Cytotoxicity (in vitro cell inhibition) HCT-116.
Setting [12] is: HCT-116, read-out: inhibition against HCT-116 cell lines.
[13] abbreviates: U-251, 48 h, read-out: Cytotoxicity (in vitro cell inhibition) U251.
Setting [14] is: MCF7, 48 h, read-out: Cytotoxicity (in vitro cell inhibition) MCF-7.
The mark [15] stands for this setting: MCF7, read-out: inhibition against MCF-7 cell lines.
Where [16] appears, read: MIA PaCa-2, 48 h, read-out: Cytotoxicity (in vitro cell inhibition) Mia-PaCa.
Where [17] appears, read: MIA PaCa-2, read-out: inhibition against Mia-PaCa cell lines.
[18] abbreviates: U-251, read-out: inhibition against U251 cell lines.

pIC50: −log10 of the molar value. Where two headings read alike, the source gives them in different places. A value given as a limit tells only on which side of the number the result lay.

What is called inhibition is the share of the control response that was lost under treatment. Consider `C=C(C)[C@@H]1CCC(C)=C[C@H]1c1c(O)cc(CCCCC)cc1O` [IIa, cannabidiol], for which the inhibition at 20 µM in series [1] (setting [7]) was more than 70%; in series [1] (setting [8]), more than 70%; in series [2] (setting [9]), 50 to 70%; in series [2] (setting [10]), more than 50%; in series [3] (setting [11]) it was more than 70%; in series [3] (setting [12]) it was more than 70%. Moreover, the inhibition at 20 µM in series [4] (setting [13]) is less than 50%; in series [5] (setting [14]) it was 50 to 70%; in series [5] (setting [15]), more than 50%.
Turning to `C=C(C)[C@@H]1CCC(C)=C[C@H]1c1c(O)cc(CCCCC)c2c1OCN(CCC)C2` [Ic, (N-propyldihydrol-2H-oxazinyl)-cannabidiol], the inhibition at 20 µM is 50 to 70% in series [1] (setting [7]); more than 50% in series [1] (setting [8]); less than 50% in “in vitro”; 50 to 70% in series [2] (setting [9]); more than 50% in series [2] (setting [10]); 50 to 70% in series [3] (setting [11]). In addition, the inhibition at 20 µM in series [3] (setting [12]) was more than 50%; in series [6] (setting [16]), more than 70%; in series [6] (setting [17]), more than 70%; in series [4] (setting [13]), 50 to 70%; in series [4] (setting [18]), more than 50%; in series [5] (setting [14]) it was more than 70%. The inhibition at 20 µM in series [5] (setting [15]) was more than 70%.
The term pIC50 denotes the IC50 on a negative log10 scale, so that one unit is a factor of ten. Turning to `C=C(C)[C@@H]1CCC(C)=C[C@H]1c1c(O)cc(CCCCC)c2c1OCN(CCCC)C2` [Id, (N-butyldihydrol-2H-oxazinyl)-cannabidiol], the inhibition at 20 µM in series [1] (setting [7]) was more than 70%; in series [1] (setting [8]) it was more than 70%; in the series “in vitro”, less than 50%; in series [2] (setting [9]), more than 70%; in series [2] (setting [10]), more than 70%; in series [3] (setting [11]) it was more than 70%. In addition, the inhibition at 20 µM in series [3] (setting [12]) was more than 70%; in series [6] (setting [16]), more than 70%; in series [6] (setting [17]) it was more than 70%; in series [4] (setting [13]), 50 to 70%; in series [4] (setting [18]), more than 50%; in series [5] (setting [14]) it was more than 70%. For the same compound, in series [5] (setting [15]), the inhibition at 20 µM is more than 70%. Besides, the pIC50 in series [1] (A549, read-out: IC50 against A549) is 5.03; in series [2] (read-out: IC50 against PC-3), 5.38; in series [3] (HCT-116, read-out: IC50 against HCT-116), 5.39; in series [6] (MIA PaCa-2, read-out: IC50 against Mia-PaCa-2) it was 4.94; in series [4] (U-251, read-out: IC50 against U251), 4.76; in series [5] (MCF7, read-out: IC50 against MCF-7), 5.54.
As for `C=C(C)[C@@H]1CCC(C)=C[C@H]1c1c(O)cc(CCCCC)c2c1OCN(CCCCCC)C2` [Ie, (N-hexyldihydrol-2H-oxazinyl)-cannabidiol], the inhibition at 20 µM in series [1] (setting [7]) is less than 50%; in series [2] (setting [9]) it was less than 50%; in series [3] (setting [11]), more than 70%; in series [3] (setting [12]), more than 70%; in series [6] (setting [16]), less than 50%; in series [4] (setting [13]), less than 50%. For the same compound, the inhibition at 20 µM in series [5] (setting [14]) and in series [5] (setting [15]) was more than 70% each time. This compound gave an inhibition at 48 h, 20 µM in the series “in vitro” of less than 50%.
For the compound `C=C(C)[C@@H]1CCC(C)=C[C@H]1c1c(O)cc(CCCCC)c2c1OCN(C1CC1)C2` [Ig, (N-cyclopropyldihydrol-2H-oxazinyl)-cannabidiol], the inhibition at 20 µM in series [1] (setting [7]) was 50 to 70%; in series [1] (setting [8]), more than 50%; in the series “in vitro”, less than 50%; in series [2] (setting [9]), 50 to 70%; in series [2] (setting [10]) it was more than 50%; in series [3] (setting [11]), 50 to 70%. Besides, the inhibition at 20 µM in series [3] (setting [12]) was more than 50%; in series [6] (setting [16]), less than 50%; in series [4] (setting [13]), less than 50%; in series [5] (setting [14]), 50 to 70%; in series [5] (setting [15]), more than 50%.
In the case of `C=C(C)[C@@H]1CCC(C)=C[C@H]1c1c(O)cc(CCCCC)c2c1OCN(C1CCCCCC1)C2` [Ii, (N-cycloheptyldihydrol-2H-oxazinyl)-cannabidiol], the inhibition at 20 µM was more than 70% in series [1] (setting [7]); more than 70% in series [1] (setting [8]); 50 to 70% in series [2] (setting [9]); more than 50% in series [2] (setting [10]); 50 to 70% in series [3] (setting [11]); more than 50% in series [3] (setting [12]). The inhibition at 20 µM was more than 70% in series [6] (setting [16]); more than 70% in series [6] (setting [17]); less than 50% in series [4] (setting [13]); more than 70% in series [5] (setting [14]); more than 70% in series [5] (setting [15]). In “in vitro”, this compound showed an inhibition at 48 h, 20 µM of less than 50%.
With `C=C(C)[C@@H]1CCC(C)=C[C@H]1c1c(O)cc(CCCCC)c2c1OCN(c1ccccc1)C2` [Ij, (N-phenyldihydrol-2H-oxazinyl)-cannabidiol], the inhibition at 20 µM in series [1] (setting [7]), in series [2] (setting [9]), in series [3] (setting [11]), in series [6] (setting [16]), in series [4] (setting [13]) and in series [5] (setting [14]) was less than 50% each time. Further, in the series “in vitro”, the inhibition at 48 h, 20 µM is less than 50%.
With `C=C(C)[C@@H]1CCC(C)=C[C@H]1c1c(O)cc(CCCCC)c2c1OCN(c1ccc(C(C)C)cc1)C2` [Ik, (N-isopropylphenyldihydrol-2H-oxazinyl)-cannabidiol], the inhibition at 20 µM in series [1] (setting [7]), in series [2] (setting [9]), in series [3] (setting [11]), in series [6] (setting [16]), in series [4] (setting [13]) and in series [5] (setting [14]) was less than 50% each time. Further, in “in vitro”, the inhibition at 48 h, 20 µM was less than 50%.
For `C=C(C)[C@@H]1CCC(C)=C[C@H]1c1c(O)cc(CCCCC)c2c1OCN(c1ccc(OC(F)(F)F)cc1)C2` [Il, (N-trifluoromethoxyphenyldihydrol-2H-oxazinyl)-cannabidiol], the inhibition at 20 µM in series [1] (setting [7]), in series [2] (setting [9]), in series [3] (setting [11]), in series [6] (setting [16]), in series [4] (setting [13]) and in series [5] (setting [14]) was less than 50% each time. The inhibition at 48 h, 20 µM in “in vitro” is less than 50%.
Turning to `C=C(C)[C@@H]1CCC(C)=C[C@H]1c1c(O)cc(CCCCC)c2c1OCN(c1cnc3ccccc3c1)C2` [Im, (N-quinolinedihydrol-2H-oxazinyl)-cannabidiol], the inhibition at 20 µM in series [1] (setting [7]), in series [2] (setting [9]), in series [3] (setting [11]), in series [6] (setting [16]), in series [4] (setting [13]) and in series [5] (setting [14]) was less than 50% each time. The inhibition at 48 h, 20 µM in the series “in vitro” is less than 50%.
Turning to `C=C(C)[C@@H]1CCC(C)=C[C@H]1c1c(O)cc(CCCCC)c2c1OCN(Cc1ccccc1)C2` [In, (N-benzyldihydrol-2H-oxazinyl)-cannabidiol], the inhibition at 20 µM was more than 50% in series [1] (setting [8]); more than 50% in series [2] (setting [10]); more than 50% in series [3] (setting [12]); less than 50% in series [6] (setting [16]); less than 50% in series [4] (setting [13]); less than 50% in series [5] (setting [14]). The same compound registered an inhibition at 48 h, 20 µM in the series “in vitro” of less than 50%.
Consider `C=C(C)[C@@H]1CCC(C)=C[C@H]1c1c(O)cc(CCCCC)c2c1OCN(c1ccccc1F)C2` [Io, (N-2-fluorophenyldihydrol-2H-oxazinyl)-cannabidiol], for which the inhibition at 20 µM in series [1] (setting [7]), in series [2] (setting [9]), in series [3] (setting [11]), in series [6] (setting [16]), in series [4] (setting [13]) and in series [5] (setting [14]) was less than 50% in each case. Besides, in the series “in vitro”, the inhibition at 48 h, 20 µM is less than 50%.

For the origin of these results see patent publication US20260216216A1, “(N-ALKYLDIHYDROL-2H-OXAZINYL)-CANNABIDIOL AS ANTI-PROLIFERATIVE AGENT AND PROCESS FOR PREPARATION THEREOF” (COUNCIL OF SCIENTIFIC AND INDUSTRIAL RESEARCH, priority 2022, published 2026).
